From patent publication US20220177476A1, “Crystal Forms of (S)-4-(8-amino-3-(1-(but-2-ynoyl)-pyrrolidin-2-yl)imidazo[1,5-a]pyrazin-1-yl)-n-(pyridin-2-yl)benzamide” (Acerta Pharma B.V., priority 2015, published 2022)
In brackets after ≈: the same amount, converted by molar mass.

Assays:
[1] = Approximate solubility of Form I by stepwise dilution of a suspension; format: physicochemical; conditions: thermodynamic from solid, read-out: Solubility [S, mg/mL]
Description: Form I was also tested with respect to solubilities in various water-solvent mixtures and non-aqueous solvents. Solubility studies were conducted by a stepwise dilution of a suspension of about 10 mg of Form I in 0.1 mL of analytical grade solvent. Solubility values are estimated approximations and are subject to variable experimental error.

[2] = Solubility of Form I by HPLC in solvents and water-solvent mixtures; format: physicochemical; conditions: for solubility: organic solvent or mixture, thermodynamic from solid, read-out: Solubility (S, mg/mL)
Description: The solubility of recrystallized Formula (1) Form I was tested in various water-solvent mixtures and non-aqueous solvents.

[3] = Intrinsic dissolution rate (paddle over stationary disc); format: physicochemical
Description: The intrinsic dissolution rate (IDR) was measured for Forms I and II of the free base of Formula (1). IDR was measured using a paddle over stationary disc equipped dissolution apparatus with concentration determined using liquid chromatographic analysis against a standard. […] Form I has an IDR of 6.8 mg/cm^2/min in simulated gastric fluid (SGF) (pH 1.2) and an IDR of 0.44 mg/cm^2/min in pH 2.5 HCl/NaCl buffer. Form II has an IDR of 5.4 mg/cm^2/min in SGF and an IDR of 0.35 mg/cm^2/min in pH 2.5 HCl/NaCl buffer.

[4] = Dynamic vapor sorption (DVS); format: physicochemical; conditions: DVS
Description: A gravimetric vapor sorption study was run using a standard procedure. Samples were run using a dynamic vapor sorption (DVS) analyzer. Sample sizes were approximately 10 mg. A moisture adsorption-desorption isotherm was performed as outlined below.

[5] = Aqueous solubility after equilibrating at 25° C. for three days (HPLC); format: physicochemical; conditions: water, 25° C., three days
Description: Finally, Form II was tested with respect to solubilities in various water-solvent mixtures and non-aqueous solvents. […] High-performance liquid chromatography (HPLC) was used to determine the concentration of Form II in the filtered solution at approximately 14 μg/mL, which translates into a critical water activity (aw) of about 0.59.

[6] = Relative stability of solid forms (water activity, suspension equilibration, storage); format: physicochemical
Description: Critical water activity is a measure of the relative thermodynamic stability of Form I in comparison to the trihydrate Form II. […] Suspension equilibration experiments in ethanol-water mixtures, each having a different water activity, affirmed this conclusion. Water activities included in the experiments were maintained at: about 0.35 (ethanol-water ratio of 95:5, PP502-P32), about 0.53 (ethanol-water ratio of 9:1, PP502-P33) and about 0.77 (ethanol-water ratio of 7:3, PP502-P34).
Because the DVS results of Form II indicate reversible moisture sorption-desorption behavior (see above), tests were performed to confirm that storage of the dehydrated Form II sample (i.e., Form IV) at about 60% RH would again lead to the trihydrate form (Form II). […]

[7] = Human Phase 1 interaction study of calcium carbonate, omeprazole, or rifampin on Formula (1); format: in vivo; conditions: healthy adult subjects, acid reducing agents prior to administration
[8] = Plasma exposure after single oral administration in fasted beagle dogs; format: in vivo; conditions: nine fasted beagle dogs, single oral administration of 6 mg/kg, oral capsule
Description: The plasma exposure of Forms I and II of the free base of Formula (1) were compared in nine fasted beagle dogs after a single oral administration of 6 mg/kg of either form using batches with a similar particle size distribution. The experiment was performed in 5 weekly phases, with the Form II phase last. […] There was a good in vitro in vivo correlation for the dissolution rates of Form 1 and Form II, and the performance of each form of Formula (1) when delivered by oral capsule to dogs.

## CC#CC(=O)N1CCC[C@H]1c1nc(-c2ccc(C(=O)Nc3ccccn3)cc2)c2c(N)nccn12 [Form I, (S)-4-(8-amino-3-(1-(but-2-ynoyl)pyrrolidin-2-yl)imidazo[1,5-α]pyrazin-1-yl)-N-(pyridin-2-yl)benzamide]
[1]; 2-propanol, organic solvent or mixture
  solubility: < 1 mg/mL
[1]; MEK saturated with water, organic solvent or mixture
  solubility: 26 to 30 mg/mL (≈ 55.9 to 64.4 mM)
[1]; THF:water 9:1, organic solvent or mixture
  solubility: > 50 mg/mL
[1]; acetic acid, organic solvent or mixture
  solubility: 102 to 204 mg/mL (≈ 219 to 438 mM)
[1]; acetic acid:MEK 1:9, organic solvent or mixture
  solubility: 63 to 95 mg/mL (≈ 135 to 204 mM)
[1]; acetic acid:ethyl acetate 1:1, organic solvent or mixture
  solubility: 92 to 184 mg/mL (≈ 198 to 395 mM)
[1]; acetic acid:ethyl acetate 1:9, organic solvent or mixture
  solubility: 60 to 90 mg/mL (≈ 129 to 193 mM)
[1]; acetic acid:isopropanol 1:9, organic solvent or mixture
  solubility: ~4 mg/mL (≈ 8.59 mM)
[1]; acetic acid:water 1:1, aqueous with cosolvent or surfactant or cyclodextrin
  solubility: 104 to 208 mg/mL (≈ 223 to 447 mM)
[1]; acetone, organic solvent or mixture
  solubility: ~2 mg/mL (≈ 4.3 mM)
[1]; acetone:water 4:1, organic solvent or mixture
  solubility: 26 to 31 mg/mL (≈ 55.9 to 66.6 mM)
[1]; acetonitrile, organic solvent or mixture
  solubility: < 1 mg/mL
[1]; ethanol, organic solvent or mixture
  solubility: ~3 mg/mL (≈ 6.44 mM)
[1]; ethanol:water 1:1, aqueous with cosolvent or surfactant or cyclodextrin
  solubility: ~6 mg/mL (≈ 12.9 mM)
[1]; ethanol:water 95:5, organic solvent or mixture
  solubility: ~8 mg/mL (≈ 17.2 mM)
[1]; ethyl acetate, organic solvent or mixture
  solubility: < 1 mg/mL
[1]; formic acid, organic solvent or mixture
  solubility: 97 to 194 mg/mL (≈ 208 to 417 mM)
[1]; methanol, organic solvent or mixture
  solubility: ~14 mg/mL (≈ 30.1 mM)
[1]; methanol:water 9:1, organic solvent or mixture
  solubility: ~15 mg/mL (≈ 32.2 mM)
[1]; organic solvent or mixture, 2-butanone, MEK
  solubility: < 1 mg/mL
[1]; organic solvent or mixture, N,N-dimethylformamide, DMF
  solubility: 49 to 65 mg/mL (≈ 105 to 140 mM)
[1]; organic solvent or mixture, N-methyl-2-pyrrolidone, NMP
  solubility: 39 to 49 mg/mL (≈ 83.8 to 105 mM)
[1]; organic solvent or mixture, dichloromethane, DCM
  solubility: 36 to 43 mg/mL (≈ 77.3 to 92.4 mM)
[1]; organic solvent or mixture, dimethyl sulfoxide, DMSO
  solubility: 39 to 49 mg/mL (≈ 83.8 to 105 mM)
[1]; organic solvent or mixture, ethanol:water 9:1 at 60° C.
  solubility: > 60 mg/mL
[1]; organic solvent or mixture, methanol:MEK 1:1 at reflux
  solubility: > 90 mg/mL
[1]; organic solvent or mixture, tetrahydrofuran, THF
  solubility: ~5 mg/mL (≈ 10.7 mM)
[1]; trifluoroethane, organic solvent or mixture
  solubility: 97 to 194 mg/mL (≈ 208 to 417 mM)
[2]; 1-propanol, 25° C.
  Solubility (S, mg/mL): 4.0 mg/mL (≈ 8.59 mM)
[2]; ethyl acetate, 25° C.
  Solubility (S, mg/mL): 1.5 mg/mL (≈ 3.22 mM)
[2]; 1-propanol, 5° C.
  solubility: 3.4 mg/mL (≈ 7.3 mM)
[2]; 1-propanol, 60° C.
  solubility: 14.4 mg/mL (≈ 30.9 mM)
[2]; 1-propanol, r.t.
  solubility: 4.7 mg/mL (≈ 10.1 mM)
[2]; 2-propanol, 25° C.
  solubility: 1.3 mg/mL (≈ 2.79 mM)
[2]; MEK, 25° C.
  solubility: 3.7 mg/mL (≈ 7.95 mM)
[2]; THF, 25° C.
  solubility: 20.4 mg/mL (≈ 43.8 mM)
[2]; acetone at RFT
  solubility: 10 mg/mL (≈ 21.5 mM)
[2]; acetone, 25° C.
  solubility: 4.1 mg/mL (≈ 8.81 mM)
[2]; ethanol, 5° C.
  solubility: 3.6 mg/mL (≈ 7.73 mM)
[2]; ethanol, 25° C.
  solubility: 4.4 mg/mL (≈ 9.45 mM)
[2]; ethanol, 50° C.
  solubility: 10.2 mg/mL (≈ 21.9 mM)
[2]; ethanol-water 9:1, 25° C.
  solubility: 23.7 mg/mL (≈ 50.9 mM)
[2]; ethanol-water 96:4, 0° C.
  solubility: 6.7 mg/mL (≈ 14.4 mM)
[2]; ethanol-water 96:4, 25° C.
  solubility: 10 mg/mL (≈ 21.5 mM)
[2]; ethanol-water 96:4, 60° C.
  solubility: 24.7 mg/mL (≈ 53.1 mM)
[2]; methanol, 25° C.
  solubility: 19.9 mg/mL (≈ 42.7 mM)
[3]; at both conditions (SGF and pH 2.5 buffer)
  increase in IDR relative to Form II: ~26%
[3]; pH 2.5 HCl/NaCl buffer
  intrinsic dissolution rate (IDR): 0.44 mg/cm^2/min
[3]; simulated gastric fluid (SGF) (pH 1.2)
  intrinsic dissolution rate (IDR): 6.8 mg/cm^2/min
[4]
  hygroscopicity (DVS), in words: not hygroscopic
  total weight gain observed between 0% RH and 80% RH: about 0.17%
  water content at 50% RH: approximately 0.25%
[4]; at 95% RH
  water absorption within the timeframe of the test: less than 0.3%
[4]; weight increase at 80% RH
  hygroscopicity according to the European Pharmacopoeia (EP) classification: non-hygroscopic (non-hygroscopic: <0.2%)
[4]; listed as recrystallized Formula (1)
  maximum water content (saturation) at about 95% RH: approximately 0.5%
[5]
  solid residue after aqueous solubility test (PXRD): Form I was retained
[6]; 5° C., methanol, mixture of Forms (I), VI, and VII, five days
  form recovered after suspension equilibration in methanol: pure Form I was recovered
[6]; room temperature, depending on water activity
  relative thermodynamic stability of Form I and Form II: Below an aw of about 0.59, Form I is more stable
[7]
  exposure after treatment with acid reducing agents: significant decreases in exposure
[8]
  exposure: higher exposure in the beagle than Form II
